From ChEMBL document CHEMBL2390907, “Juglone, isolated from Juglans mandshurica Maxim, induces apoptosis via down-regulation of AR expression in human prostate cancer LNCaP cells” (Bioorg Med Chem Lett, 2013)
Calls of active or inactive are those of the source. No cut-off for these calls is given here.

Experiments:
LNCaP [1] = assay: Induction of apoptosis in human LNCAP cells assessed as cleavage of precursor of caspase-3 and 9 after 24 hrs by Western blot analysis; assay type: functional, cell-based
LNCaP [2] = assay: Induction of apoptosis in human LNCAP cells assessed as decrease of androgen receptor protein expression at 5 uM after 24 hrs by Western blot analysis; assay type: functional, cell-based
LNCaP [3] = assay: Induction of apoptosis in human LNCAP cells assessed as decrease of prostate-specific antigen protein expression at 5 uM after 24 hrs by Western blot analysis; assay type: functional, cell-based
LNCaP [4] = assay: Induction of apoptosis in human LNCAP cells assessed as decrease of mitochondria membrane potential after 24 hrs using rhodamine 123 dye by flow cytometry; assay type: functional, cell-based
LNCaP [5] = assay: Induction of apoptosis in human LNCAP cells assessed as cell shrinkage at 5 to 15 uM after 24 hrs using Hoechst 33342 staining by fluorescence microscopic analysis; assay type: functional, cell-based
LNCaP [6] = assay: Induction of apoptosis in human LNCAP cells assessed as decrease of DHT-induced androgen receptor mRNA expression at 15 uM treated 2 hrs before DHT challenge measured after 24 hrs by RT-PCR analysis; assay type: functional, cell-based
LNCaP [7] = assay: Induction of apoptosis in human LNCAP cells assessed as decrease of androgen receptor protein expression after 24 hrs by Western blot analysis; assay type: functional, cell-based
LNCaP [8] = assay: Induction of apoptosis in human LNCAP cells assessed as nuclear condensation at 5 to 15 uM after 24 hrs using Hoechst 33342 staining by fluorescence microscopic analysis; assay type: functional, cell-based
LNCaP [9] = assay: Induction of apoptosis in human LNCAP cells assessed as decrease of DHT-induced prostate-specific antigen mRNA expression at 15 uM treated 2 hrs before DHT challenge measured after 24 hrs by RT-PCR analysis; assay type: functional, cell-based
LNCaP [10] = assay: Induction of apoptosis in human LNCAP cells assessed as activation of caspase-3 and 9 at 15 uM after 24 hrs by Western blot analysis relative to control; assay type: functional
LNCaP [11] = assay: Induction of apoptosis in human LNCAP cells assessed as increase of annexin V-FITC/PI staining positive cells after 24 hrs by flow cytometry; assay type: functional, cell-based
LNCaP [12] = assay: Antiproliferative activity against human LNCAP cells after 24 hrs by MTT assay; assay type: functional, cell-based
LNCaP [13] = assay: Induction of apoptosis in human LNCAP cells assessed as membrane blebbing at 5 to 15 uM after 24 hrs using Hoechst 33342 staining by fluorescence microscopic analysis; assay type: functional, cell-based
LNCaP [14] = assay: Induction of apoptosis in human LNCAP cells assessed as decrease of prostate-specific antigen protein expression after 24 hrs by Western blot analysis; assay type: functional, cell-based

O=C1C=CC(=O)c2c(O)cccc21 [JUGLONE]
Activity (LNCaP [1]): Dose-dependent effect
Activity (LNCaP [2]): inactive
Activity (LNCaP [3]): inactive
Activity (LNCaP [4]): Dose-dependent effect
Activity (LNCaP [5]): Active
Activity (LNCaP [6]): Active
Activity (LNCaP [7]): Dose-dependent effect
Activity (LNCaP [8]): Active
Activity (LNCaP [9]): Active
fold change (FC) (LNCaP [10]): >2.5
Activity (LNCaP [11]): Dose-dependent effect
Activity (LNCaP [12]): Dose-dependent effect
IC50 (LNCaP [12]): 13.8 µM
Activity (LNCaP [13]): Active
Activity (LNCaP [14]): Dose-dependent effect
